Test results as given in PMC4576993 (Leukemia, 2011).

Assay: Renal excretion of vosaroxin and metabolites in urine, 24 h after first dose
Format: in vivo, human
Conditions: 18 and 27 mg/m^2 weekly, eight patients

Which results are given for CO[C@H]1CN(c2ccc3c(=O)c(C(=O)O)cn(-c4nccs4)c3n2)C[C@@H]1N [N-desmethyl-vosaroxin]?
Average renal excretion of the total dose infused (24 h after first dose): 0.99%; Detection in urine (first dose): the only metabolite detected in urine; Ratio of N-desmethyl-vosaroxin to vosaroxin excretion in urine (first dose, coefficient of variation 40%): 0.43
